Test results: publication PMC9848300, “Discovery of novel enasidenib analogues targeting inhibition of mutant isocitrate dehydrogenase 2 as antileukaemic agents” (Journal of Enzyme Inhibition and Medicinal Chemistry, 2023)
Like-named read-outs stand apart in the source and are kept apart here.

Experiments:
EKVX = experiment: NCI 60 antitumor screening (single dose / five doses); format: cell-based; conditions: Homo sapiens; for inhibition at 10 µM: EKVX (non-small cell lung cancer), single dose 10 μM, read-out: Growth inhibition percentage (GI %); for GI50: EKVX, five doses (0.01–100 μM), read-out: GI50
NCI/ADR-RES = experiment: as above; format: cell-based; conditions: Homo sapiens; for inhibition at 10 µM: NCI/ADR-RES (ovarian cancer), single dose 10 μM, read-out: Growth inhibition percentage (GI %); for GI50: NCI/ADR-RES, five doses (0.01–100 μM), read-out: GI50
MALME-3M = experiment: as above; format: cell-based; conditions: Homo sapiens; for inhibition at 10 µM: MALME-3M (melanoma), single dose 10 μM, read-out: Growth inhibition percentage (GI %); for GI50: MALME-3M, five doses (0.01–100 μM), read-out: GI50
NCI-H522 = experiment: NCI 60 antitumor screening (single dose); format: cell-based; conditions: Homo sapiens; NCI-H522 (non-small cell lung cancer), single dose 10 μM; read-out: Growth inhibition percentage (GI %)
Procedure: (§1) Initially, the anticancer effects of target compounds have been assessed at a single (10 μM) dose. The obtained data have been reported as mean-graph of the percent growth (G%) of the treated cancer cells. Percentage growth inhibition (GI%) is calculated (100 − G%) and pronounced in Table 1. […] Target compounds in series (III) with manipulated linkers disclosed lower potency. Superiorly, eight s-triazine derivatives from the three series (6a, 6c, 6d, 7a, 7g, 7i, 7l, and 8b) have shown potent broad-spectrum anticancer activity against most the examined cell lines, whereas most of the remaining triazine derivatives, 20 derivatives, have exerted selective anti-proliferative actions towards certain cancer cell lines (Supplementary).
(§2) The antitumor screening was performed for 60 human cancer cell lines under the protocol of NCI (www.dtp.nci.nih.gov), the Drug Evaluation Branch, Bethesda, MD. All submitted compounds were nominated based on the degree of structural diversity and computer modelling techniques for evaluation of their anticancer activity. The screening process for antineoplastic activity passes through two successive levels, starting with the assessment of target compounds at a single dose of 10 μM against 60 cancer cell lines on nine types of human tumours. These experiments were done on a triplicate following. The output from the single‐dose screening was covered as a mean graph, and then, analysed by the COMPARE program. Finally, the compounds which disclosed subpanel cancer cell growth (G %) equal to or less than 10% in at least eight cancer cell lines get to pass the assessment against the 60 cell lines at five doses (0.01–100 μM). By using GraphPad Prism version 9.0 (Graphpad Software Inc., La Jolla, CA), GI50, TGI, as well as LC50 dose‐response parameters were computed and presented for each compound (Supplementary information)[55–57].

HS 578T = experiment: NCI 60 antitumor screening (single dose); format: cell-based; conditions: Homo sapiens; HS 578T (breast cancer), single dose 10 μM; read-out: Growth inhibition percentage (GI %)
Procedure: as §1, §2

SK-OV-3 = experiment: NCI 60 antitumor screening (single dose); format: cell-based; conditions: Homo sapiens; SK-OV-3 (ovarian cancer), single dose 10 μM; read-out: Growth inhibition percentage (GI %)
Procedure: as §1, §2

NCI-H460 = experiment: NCI 60 antitumor screening (single dose); format: cell-based; conditions: Homo sapiens; NCI-H460 (non-small cell lung cancer), single dose 10 μM; read-out: Growth inhibition percentage (GI %)
Procedure: as §1, §2

HCC-2998 = experiment: NCI 60 antitumor screening (single dose); format: cell-based; conditions: Homo sapiens; HCC-2998 (colon cancer), single dose 10 μM; read-out: Growth inhibition percentage (GI %)
Procedure: as §1, §2

OVCAR-8 = experiment: NCI 60 antitumor screening (single dose); format: cell-based; conditions: Homo sapiens; OVCAR-8 (ovarian cancer), single dose 10 μM; read-out: Growth inhibition percentage (GI %)
Procedure: as §1, §2

TK-10 = experiment: NCI 60 antitumor screening (single dose); format: cell-based; conditions: Homo sapiens; TK-10 (renal cancer), single dose 10 μM; read-out: Growth inhibition percentage (GI %)
Procedure: as §1, §2

KM 12 = experiment: NCI 60 antitumor screening (single dose); format: cell-based; conditions: Homo sapiens, KM12; KM 12 (colon cancer), single dose 10 μM; read-out: Growth inhibition percentage (GI %)
Procedure: as §1, §2

A549/ATCC = experiment: NCI 60 antitumor screening (single dose); format: cell-based; conditions: Homo sapiens; A549/ATCC (non-small cell lung cancer), single dose 10 μM; read-out: Growth inhibition percentage (GI %)
Procedure: as §1, §2

OVCAR-4 = experiment: NCI 60 antitumor screening (single dose); format: cell-based; conditions: Homo sapiens; OVCAR-4 (ovarian cancer), single dose 10 μM; read-out: Growth inhibition percentage (GI %)
Procedure: as §1, §2

OVCAR-3 = experiment: NCI 60 antitumor screening (single dose); format: cell-based; conditions: Homo sapiens; OVCAR-3 (ovarian cancer), single dose 10 μM; read-out: Growth inhibition percentage (GI %)
Procedure: as §1, §2

SNB-19 = experiment: NCI 60 antitumor screening (single dose); format: cell-based; conditions: Homo sapiens; SNB-19 (CNS cancer), single dose 10 μM; read-out: Growth inhibition percentage (GI %)
Procedure: as §1, §2

HOP-62 = experiment: NCI 60 antitumor screening (single dose); format: cell-based; conditions: Homo sapiens; HOP-62 (non-small cell lung cancer), single dose 10 μM; read-out: Growth inhibition percentage (GI %)
Procedure: as §1, §2

M14 = experiment: NCI 60 antitumor screening (single dose); format: cell-based; conditions: Homo sapiens; M14 (melanoma), single dose 10 μM; read-out: Growth inhibition percentage (GI %)
Procedure: as §1, §2

CAKI-1 = experiment: NCI 60 antitumor screening (single dose); format: cell-based; conditions: Homo sapiens; CAKI-1 (renal cancer), single dose 10 μM; read-out: Growth inhibition percentage (GI %)
Procedure: as §1, §2

NCI-H322M = experiment: NCI 60 antitumor screening (single dose); format: cell-based; conditions: Homo sapiens; NCI-H322M (non-small cell lung cancer), single dose 10 μM; read-out: Growth inhibition percentage (GI %)
Procedure: as §1, §2

U251 = experiment: NCI 60 antitumor screening (single dose); format: cell-based; conditions: Homo sapiens, U-251; U251 (CNS cancer), single dose 10 μM; read-out: Growth inhibition percentage (GI %)
Procedure: as §1, §2

PC-3 = experiment: NCI 60 antitumor screening (single dose); format: cell-based; conditions: Homo sapiens; PC-3 (prostate cancer), single dose 10 μM; read-out: Growth inhibition percentage (GI %)
Procedure: as §1, §2

NCI-H226 = experiment: NCI 60 antitumor screening (single dose); format: cell-based; conditions: Homo sapiens; NCI-H226 (non-small cell lung cancer), single dose 10 μM; read-out: Growth inhibition percentage (GI %)
Procedure: as §1, §2

OVCAR-5 = experiment: NCI 60 antitumor screening (single dose); format: cell-based; conditions: Homo sapiens; OVCAR-5 (ovarian cancer), single dose 10 μM; read-out: Growth inhibition percentage (GI %)
Procedure: as §1, §2

NCI-H23 = experiment: NCI 60 antitumor screening (single dose); format: cell-based; conditions: Homo sapiens; NCI-H23 (non-small cell lung cancer), single dose 10 μM; read-out: Growth inhibition percentage (GI %)
Procedure: as §1, §2

SW-620 = experiment: NCI 60 antitumor screening (single dose / five doses); format: cell-based, human; conditions: for GI50: read-out: GI50; for inhibition at 10 µM: SW-620 (colon cancer), single dose 10 μM, read-out: Growth inhibition percentage (GI %)
RPMI-8226 = experiment: as above; format: cell-based; conditions: Homo sapiens; for inhibition at 10 µM: RPMI-8226 (leukaemia), single dose 10 μM, read-out: Growth inhibition percentage (GI %); for GI50: RPMI-8226, five doses (0.01–100 μM), read-out: GI50
SR = experiment: as above; format: cell-based; conditions: Homo sapiens; for inhibition at 10 µM: SR (leukaemia), single dose 10 μM, read-out: Growth inhibition percentage (GI %); for GI50: SR, five doses (0.01–100 μM), read-out: GI50
[1] = Homo sapiens, SW-620, SW-620, five doses (0.01–100 μM)

Oc1ccccc1/C=N/Nc1nc(N/N=C/c2ccccc2O)nc(N2CCOCC2)n1 [compound 6a, 2-[(1e)-(2-{4-[(E)-2-[(2-Hydroxyphenyl)methylidene]hydrazin-1-yl]-6-(morpholin-4-yl)-1,3,5-triazin-2-yl}hydrazin-1-ylidene)methyl]phenol]
inhibition at 10 µM (EKVX): 77.8% | GI50 (EKVX): 3280 nM | inhibition at 10 µM (NCI/ADR-RES): 77.1% | GI50 (NCI/ADR-RES): 690 nM | inhibition at 10 µM (MALME-3M): 47.4% | GI50 (MALME-3M): 8690 nM | inhibition at 10 µM (NCI-H522): 39.1% | inhibition at 10 µM (HS 578T): 53% | inhibition at 10 µM (SK-OV-3): 88.1% | inhibition at 10 µM (NCI-H460): 67.5% | inhibition at 10 µM (HCC-2998): 41.1% | inhibition at 10 µM (OVCAR-8): 87.3% | inhibition at 10 µM (TK-10): 52% | inhibition at 10 µM (KM 12): 47.3% | inhibition at 10 µM (A549/ATCC): 87% | inhibition at 10 µM (OVCAR-4): 88.2% | inhibition at 10 µM (OVCAR-3): 66.4% | inhibition at 10 µM (SNB-19): 58.3% | inhibition at 10 µM (HOP-62): 74.3% | inhibition at 10 µM (M14): 62.4% | inhibition at 10 µM (CAKI-1): 95.4% | inhibition at 10 µM (NCI-H322M): 55.5% | inhibition at 10 µM (U251): 78% | inhibition at 10 µM (PC-3): 75.9% | inhibition at 10 µM (NCI-H226): 76.7% | inhibition at 10 µM (OVCAR-5): 63% | inhibition at 10 µM (NCI-H23): 58.5% | GI50 (SW-620; [1]): 1780 nM | inhibition at 10 µM (SW-620; Homo sapiens): 61.5% | inhibition at 10 µM (RPMI-8226): 46.4% | GI50 (RPMI-8226): 2780 nM | inhibition at 10 µM (SR): 84% | GI50 (SR): 320 nM

Brc1cccc(/C=N/Nc2nc(N/N=C/c3cccc(Br)c3)nc(N3CCOCC3)n2)c1 [compound 6c, 2,4-Bis[(E)-2-[(3-bromophenyl)methylidene]hydrazin-1-yl]-6-(morpholin-4-yl)-1,3,5-triazine]
inhibition at 10 µM (EKVX): 51% | inhibition at 10 µM (NCI/ADR-RES): 58.2% | GI50 (NCI/ADR-RES): 3250 nM | inhibition at 10 µM (MALME-3M): 154% | GI50 (MALME-3M): 1880 nM | inhibition at 10 µM (NCI-H522): 66.5% | inhibition at 10 µM (HS 578T): 33.8% | inhibition at 10 µM (SK-OV-3): 7.13% | inhibition at 10 µM (NCI-H460): 58.8% | inhibition at 10 µM (HCC-2998): 68.5% | inhibition at 10 µM (OVCAR-8): 62.6% | inhibition at 10 µM (TK-10): 33.2% | inhibition at 10 µM (KM 12): 69.7% | inhibition at 10 µM (A549/ATCC): 57.4% | inhibition at 10 µM (OVCAR-4): 45.8% | inhibition at 10 µM (OVCAR-3): 57.5% | inhibition at 10 µM (SNB-19): 22.1% | inhibition at 10 µM (HOP-62): 47.7% | inhibition at 10 µM (M14): 68.3% | inhibition at 10 µM (CAKI-1): 84.6% | inhibition at 10 µM (NCI-H322M): 47.2% | inhibition at 10 µM (U251): 57.3% | inhibition at 10 µM (PC-3): 63.5% | inhibition at 10 µM (NCI-H226): 56.7% | inhibition at 10 µM (OVCAR-5): 27.6% | inhibition at 10 µM (NCI-H23): 56.9% | GI50 (SW-620; [1]): 820 nM | inhibition at 10 µM (SW-620; Homo sapiens): 75.3% | GI50 (SW-620; SW-620, five doses (0.01–100 μM)): 830 nM | inhibition at 10 µM (RPMI-8226): 65.8% | GI50 (RPMI-8226): 1680 nM | inhibition at 10 µM (SR): 92.1% | GI50 (SR): 160 nM

Clc1cccc(/C=N/Nc2nc(N/N=C/c3cccc(Cl)c3)nc(N3CCOCC3)n2)c1 [compound 6d, 2,4-Bis[(E)-2-[(3-chlorophenyl)methylidene]hydrazin-1-yl]-6-(morpholin-4-yl)-1,3,5-triazine]
inhibition at 10 µM (EKVX): 27.8% | GI50 (EKVX): 4230 nM | inhibition at 10 µM (NCI/ADR-RES): 38.2% | GI50 (NCI/ADR-RES): 4580 nM | inhibition at 10 µM (MALME-3M): 144% | GI50 (MALME-3M): 2860 nM | inhibition at 10 µM (NCI-H522): 86.1% | inhibition at 10 µM (HS 578T): 32.5% | inhibition at 10 µM (SK-OV-3): -29.6% | inhibition at 10 µM (NCI-H460): 21.8% | inhibition at 10 µM (HCC-2998): 41% | inhibition at 10 µM (OVCAR-8): 50.5% | inhibition at 10 µM (TK-10): -0.21% | inhibition at 10 µM (KM 12): 69.8% | inhibition at 10 µM (A549/ATCC): 53.4% | inhibition at 10 µM (OVCAR-4): 33.6% | inhibition at 10 µM (OVCAR-3): 43.7% | inhibition at 10 µM (SNB-19): 12.1% | inhibition at 10 µM (HOP-62): -9.83% | inhibition at 10 µM (M14): 64.8% | inhibition at 10 µM (CAKI-1): 62.4% | inhibition at 10 µM (NCI-H322M): 46.2% | inhibition at 10 µM (U251): 39.6% | inhibition at 10 µM (PC-3): 58.5% | inhibition at 10 µM (NCI-H226): 39.6% | inhibition at 10 µM (OVCAR-5): 4.53% | inhibition at 10 µM (NCI-H23): 29.4% | GI50 (SW-620; [1]): 1780 nM | inhibition at 10 µM (SW-620; Homo sapiens): 81.9% | inhibition at 10 µM (RPMI-8226): 61.2% | GI50 (RPMI-8226): 1900 nM | inhibition at 10 µM (SR): 92.3% | GI50 (SR): 320 nM
